Values joined by “and” are separate entries in the source; they are usually repeats but may differ in a detail not shown here. Equal values may be shown once. Inconclusive results and toxic doses are left out.
Test system: L1210 leukemia ip in BDF1 mice, survival T/C
Assay: NCI In Vivo Anticancer Drug Screen. Data for tumor model L1210 Leukemia (intraperitoneal) in B6D2F1 (BDF1) mice
Conditions: higher = longer survival
In short: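 Each compound was tested against a transplantable tumor grown in mice. The endpoint was survival, with treated animals benchmarked against vehicle controls as a simple ratio.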

CS(=O)(=O)OCCCNCCCOS(C)(=O)=O
T/C (endpoint: mean survival time, dose: 3.0 mg/kg/injection, schedule: Q03HX024 (ip), vehicle: saline): 122 % of control
T/C (endpoint: mean survival time, dose: 5.0 mg/kg/injection, schedule: Q03HX008 (ip), vehicle: saline): 119 % of control
T/C (endpoint: mean survival time, dose: 5.0 mg/kg/injection, schedule: Q03HX024 (ip), vehicle: saline): 152 % of control
T/C (endpoint: mean survival time, dose: 8.4 mg/kg/injection, schedule: Q01DX009 (ip), vehicle: saline): 160 % of control and 173 % of control
T/C (endpoint: mean survival time, dose: 8.4 mg/kg/injection, schedule: Q03HX008 (ip), vehicle: saline): 150 % of control
T/C (endpoint: mean survival time, dose: 8.4 mg/kg/injection, schedule: Q03HX016 (ip), vehicle: saline): 156 % of control
T/C (endpoint: mean survival time, dose: 8.4 mg/kg/injection, schedule: Q03HX024 (ip), vehicle: saline): 155 % of control and 245 % of control
T/C (endpoint: mean survival time, dose: 14.0 mg/kg/injection, schedule: Q01DX009 (oral), vehicle: saline): 100 % of control
T/C (endpoint: mean survival time, dose: 14.0 mg/kg/injection, schedule: Q01DX015 (ip), vehicle: saline): 155 % of control
T/C (endpoint: mean survival time, dose: 14.0 mg/kg/injection, schedule: Q03HX008 (ip), vehicle: saline): 166 % of control and 239 % of control
T/C (endpoint: mean survival time, dose: 14.0 mg/kg/injection, schedule: Q03HX016 (ip), vehicle: saline): 188 % of control and 303 % of control
T/C (endpoint: mean survival time, dose: 14.0 mg/kg/injection, schedule: Q03HX024 (ip), vehicle: saline): 332 % of control and 344 % of control
T/C (endpoint: mean survival time, dose: 20.0 mg/kg/injection, schedule: Q01DX009 (ip), vehicle: saline): 164 % of control and 179 % of control
T/C (endpoint: mean survival time, dose: 21.0 mg/kg/injection, schedule: Q01DX015 (ip), vehicle: saline): 155 % of control
T/C (endpoint: mean survival time, dose: 23.0 mg/kg/injection, schedule: Q01DX009 (oral), vehicle: saline): 115 % of control
T/C (endpoint: mean survival time, dose: 23.0 mg/kg/injection, schedule: Q03HX008 (ip), vehicle: saline): 184 % of control and 327 % of control
T/C (endpoint: mean survival time, dose: 23.0 mg/kg/injection, schedule: Q03HX016 (ip), vehicle: saline): 244 % of control and 440 % of control
T/C (endpoint: mean survival time, dose: 23.0 mg/kg/injection, schedule: Q04DX003 (iv), vehicle: saline): 98 % of control
T/C (endpoint: mean survival time, dose: 25.0 mg/kg/injection, schedule: Q01DX001 (ip), vehicle: saline): 115 % of control
T/C (endpoint: mean survival time, dose: 36.0 mg/kg/injection, schedule: Q01DX015 (ip), vehicle: saline): 242 % of control
T/C (endpoint: mean survival time, dose: 39.0 mg/kg/injection, schedule: Q01DX003 (ip), vehicle: saline): 164 % of control and 170 % of control
T/C (endpoint: mean survival time, dose: 39.0 mg/kg/injection, schedule: Q01DX005 (ip), vehicle: saline): 190 % of control
T/C (endpoint: mean survival time, dose: 39.0 mg/kg/injection, schedule: Q01DX009 (sc), vehicle: saline): 120 % of control
T/C (endpoint: mean survival time, dose: 39.0 mg/kg/injection, schedule: Q04DX003 (ip), vehicle: clinical formulation): 157 % of control
T/C (endpoint: mean survival time, dose: 39.0 mg/kg/injection, schedule: Q04DX003 (ip), vehicle: saline): 212 % of control
T/C (endpoint: mean survival time, dose: 39.0 mg/kg/injection, schedule: Q04DX003 (iv), vehicle: saline): 87 % of control
T/C (endpoint: mean survival time, dose: 39.0 mg/kg/injection, schedule: Q08DX002 (ip), vehicle: saline): 200 % of control
T/C (endpoint: mean survival time, dose: 40.0 mg/kg/injection, schedule: Q01DX009 (ip), vehicle: saline): 178 % of control and 188 % of control
T/C (endpoint: mean survival time, dose: 60.0 mg/kg/injection, schedule: Q01DX015 (ip), vehicle: saline): 159 % of control
T/C (endpoint: mean survival time, dose: 65.0 mg/kg/injection, schedule: Q01DX001 (ip), vehicle: saline): 160 % of control
T/C (endpoint: mean survival time, dose: 65.0 mg/kg/injection, schedule: Q01DX001 (oral), vehicle: saline): 109 % of control
T/C (endpoint: mean survival time, dose: 65.0 mg/kg/injection, schedule: Q01DX003 (ip), vehicle: saline): 241 % of control
T/C (endpoint: mean survival time, dose: 65.0 mg/kg/injection, schedule: Q01DX005 (ip), vehicle: saline): 402 % of control
T/C (endpoint: mean survival time, dose: 65.0 mg/kg/injection, schedule: Q01DX009 (oral), vehicle: saline): 106 % of control
T/C (endpoint: mean survival time, dose: 65.0 mg/kg/injection, schedule: Q04DX003 (ip), vehicle: clinical formulation): 159 % of control
T/C (endpoint: mean survival time, dose: 65.0 mg/kg/injection, schedule: Q04DX003 (ip), vehicle: saline): 299 % of control and 445 % of control
T/C (endpoint: mean survival time, dose: 65.0 mg/kg/injection, schedule: Q04DX003 (ip), vehicle: water): 173 % of control
T/C (endpoint: mean survival time, dose: 65.0 mg/kg/injection, schedule: Q04DX003 (iv), vehicle: saline): 109 % of control
T/C (endpoint: mean survival time, dose: 65.0 mg/kg/injection, schedule: Q04DX003 (oral), vehicle: saline): 120 % of control
T/C (endpoint: mean survival time, dose: 65.0 mg/kg/injection, schedule: Q08DX002 (ip), vehicle: saline): 226 % of control
T/C (endpoint: mean survival time, dose: 80.0 mg/kg/injection, schedule: Q01DX009 (ip), vehicle: saline): 94 % of control and 122 % of control
T/C (endpoint: mean survival time, dose: 100.0 mg/kg/injection, schedule: Q01DX001 (ip), vehicle: saline): 150 % of control
T/C (endpoint: mean survival time, dose: 108.0 mg/kg/injection, schedule: Q01DX001 (ip), vehicle: saline): 193 % of control and 337 % of control
T/C (endpoint: mean survival time, dose: 108.0 mg/kg/injection, schedule: Q01DX001 (oral), vehicle: saline): 110 % of control
T/C (endpoint: mean survival time, dose: 108.0 mg/kg/injection, schedule: Q01DX001 (sc), vehicle: saline): 115 % of control
T/C (endpoint: mean survival time, dose: 108.0 mg/kg/injection, schedule: Q01DX003 (ip), vehicle: saline): 247 % of control and 310 % of control
T/C (endpoint: mean survival time, dose: 108.0 mg/kg/injection, schedule: Q01DX005 (ip), vehicle: saline): 280 % of control
T/C (endpoint: mean survival time, dose: 108.0 mg/kg/injection, schedule: Q01DX009 (sc), vehicle: saline): 93 % of control
T/C (endpoint: mean survival time, dose: 108.0 mg/kg/injection, schedule: Q04DX003 (ip), vehicle: clinical formulation): 108 % of control
T/C (endpoint: mean survival time, dose: 108.0 mg/kg/injection, schedule: Q04DX003 (ip), vehicle: saline): 267 % of control and 422 % of control
T/C (endpoint: mean survival time, dose: 108.0 mg/kg/injection, schedule: Q04DX003 (ip), vehicle: water): 100 % of control
T/C (endpoint: mean survival time, dose: 108.0 mg/kg/injection, schedule: Q04DX003 (iv), vehicle: saline): 113 % of control
T/C (endpoint: mean survival time, dose: 180.0 mg/kg/injection, schedule: Q01DX001 (ip), vehicle: saline): 246 % of control
T/C (endpoint: mean survival time, dose: 180.0 mg/kg/injection, schedule: Q01DX001 (oral), vehicle: saline): 120 % of control
T/C (endpoint: mean survival time, dose: 180.0 mg/kg/injection, schedule: Q01DX001 (sc), vehicle: saline): 115 % of control
T/C (endpoint: mean survival time, dose: 180.0 mg/kg/injection, schedule: Q01DX003 (ip), vehicle: saline): 95 % of control and 103 % of control
T/C (endpoint: mean survival time, dose: 180.0 mg/kg/injection, schedule: Q04DX003 (iv), vehicle: saline): 118 % of control
T/C (endpoint: mean survival time, dose: 180.0 mg/kg/injection, schedule: Q04DX003 (oral), vehicle: saline): 95 % of control
T/C (endpoint: mean survival time, dose: 180.0 mg/kg/injection, schedule: Q08DX002 (ip), vehicle: saline): 421 % of control
T/C (endpoint: mean survival time, dose: 200.0 mg/kg/injection, schedule: Q01DX001 (ip), vehicle: saline): 157 % of control and 176 % of control and 200 % of control
T/C (endpoint: median survival time, dose: 12.5 mg/kg/injection, schedule: Q01DX009 (ip), vehicle: saline): 115 % of control
T/C (endpoint: median survival time, dose: 23.0 mg/kg/injection, schedule: Q01DX005 (ip), vehicle: saline): 122 % of control
T/C (endpoint: median survival time, dose: 25.0 mg/kg/injection, schedule: Q01DX009 (ip), vehicle: saline): 150 % of control
T/C (endpoint: median survival time, dose: 39.0 mg/kg/injection, schedule: Q01DX005 (ip), vehicle: saline): 155 % of control
T/C (endpoint: median survival time, dose: 39.0 mg/kg/injection, schedule: Q01DX005 (sc), vehicle: saline): 122 % of control
T/C (endpoint: median survival time, dose: 39.0 mg/kg/injection, schedule: Q01DX009 (ip), vehicle: saline): 150 % of control
T/C (endpoint: median survival time, dose: 50.0 mg/kg/injection, schedule: Q01DX009 (ip), vehicle: saline): 180 % of control
T/C (endpoint: median survival time, dose: 50.0 mg/kg/injection, schedule: Q04DX003 (ip), vehicle: saline): 161 % of control
T/C (endpoint: median survival time, dose: 65.0 mg/kg/injection, schedule: Q01DX005 (ip), vehicle: saline): 155 % of control
T/C (endpoint: median survival time, dose: 65.0 mg/kg/injection, schedule: Q01DX009 (ip), vehicle: saline): 100 % of control and 115 % of control
T/C (endpoint: median survival time, dose: 65.0 mg/kg/injection, schedule: Q04DX003 (ip), vehicle: saline): 155 % of control
T/C (endpoint: median survival time, dose: 100.0 mg/kg/injection, schedule: Q04DX003 (ip), vehicle: saline): 177 % of control and 666 % of control
T/C (endpoint: median survival time, dose: 108.0 mg/kg/injection, schedule: Q01DX001 (ip), vehicle: saline): 155 % of control
T/C (endpoint: median survival time, dose: 108.0 mg/kg/injection, schedule: Q01DX005 (ip), vehicle: saline): 100 % of control
T/C (endpoint: median survival time, dose: 108.0 mg/kg/injection, schedule: Q01DX005 (sc), vehicle: saline): 88 % of control
T/C (endpoint: median survival time, dose: 108.0 mg/kg/injection, schedule: Q04DX003 (ip), vehicle: saline): 188 % of control
T/C (endpoint: median survival time, dose: 200.0 mg/kg/injection, schedule: Q04DX003 (ip), vehicle: saline): 100 % of control

Source: PubChem BioAssay AID248 (DTP/NCI, 2004)
